Counter-ions that a name gives are not always drawn.
Legend:
VEGF-induced edema = assay: Miles assay, VEGF as agonist; type: in vivo, Sprague-Dawley rats; conditions: VEGF 200 ng/injection site, vehicle 12
Method: A rodent model of vascular edema, the Miles assay, was used to screen compounds for their ability to inhibit VEGF-induced edema. […] Sprague-Dawley rats were first injected IV with vehicle alone or test agent, followed by IV injection of Evans blue dye, followed by intradermal injections of saline and VEGF (200 ng/injection site) along both shaved flanks. […] The ability of test agent to influence vascular edema was tested as above, except that the ability to block edema was tested using either VEGF or histamine as the agonist (200 ng and 10 µg/injection site, respectively).

[1] = test system: CT-26 Colon carcinoma cells; assay: CT-26 colon carcinoma lung metastases model, net tumor burden; type: in vivo, Balb/C mice
Method: FIGURE 3 (omitted) illustrates the effect of compounds administered in conjunction with doxorubicin in an in vivo model of metastatic colon cancer (CT-26 adenocarcinoma). Syngeneic CT-26 Colon carcinoma cells were injected I.V. in order to establish lung metastases in Balb/C mice. Beginning 10 days after cells were injected, test agents were given I.P. every 3 days for 3 cycles. Animals were sacrificed at day 20, lungs were collected, and weighed. Net tumor burden is the weight of tumor-bearing lungs minus the average weight of normal control lungs. N=5/group, p<0.02. In the experiment compound A is 6,7-bis(4-hydroxyphenyl)-pteridin-4-ylamine sulfate salt, and compound B is 6,7-diphenyl-pteridine-2,4-diamine.
FIGURE 4 (omitted) illustrates the effects of compounds of the present invention for co-drug therapy with Taxotere as described herein. Syngeneic CT-26 Colon carcinoma cells were used in order to establish lung metastases in Balb/C mice as described above. 6,7-bis(4-hydroxyphenyl)-pteridin-4-ylamine, sulfate salt (compound A) and 6,7-diphenyl-pteridine-2,4-diamine (compound B) were used.
FIGURE 6 (omitted) illustrates the effect of compounds administered in conjunction with docetaxel in the in vivo model of metastatic colon cancer (CT-26 adenocarcinoma) described for FIGURE 4. 2,3-Bis(3,4-dihydroxyphenyl)-pyrido[2,3-b]pyrazin-6-ylamine dihydrochloride salt (compound C) from FIGURE 4 is shown in FIGURE 6 as compound C. N=5/group, p<0.02.
(§1) Syngeneic CT-26 Colon carcinoma cells were injected I. V. in order to establish lung metastases in Balb/C mice. Beginning 10 days after cells were injected, indicated test agents were given I. P. every 3 days for 3 cycles. Animals were sacrificed at day 20, lungs were collected, and weighed. Net tumor burden is the weight of tumor-bearing lungs minus the average weight of normal control lungs. N=5/group, p < 0.02.
as §1, with “FIGURE 4 (omitted) illustrates the effects of the compounds of the present invention for co- drug therapy with docetaxel (Taxoteree-in this example formulated in 12. 5% Cremaphore: 12.5% Ethanol: 75% normal saline) as described herein. Syngeneic” for “Syngeneic”, “I.V.” for “I. V.”
FIGURE 6 (omitted) illustrates the effect of compounds administered in conjunction with docetaxel (Taxoreree-in this example formulated in 12.5% Cremaphore: 12.5% Ethanol:75% normal saline) in the in vivo model of metastatic colon cancer (CT-26 adenocarcinoma) described for FIGURE 4 (omitted). […] N=5/group,p < 0.02.
Similarly, 2,3-bis (4-hydroxyphenyl)-pyrido [2,3-b] pyrazin-6-ylamine dihydrochloride salt inhibited tumor burden alone or with co-drug therapy using docetaxel (Taxotere@~in this example formulated in 12.5% Cremaphore : 12.5% Ethanol:75% normal saline) as described herein. Syngeneic CT-26 Colon carcinoma cells were injected I.V. in order to establish lung metastases in Balb/C mice. Beginning 10 days after cells were injected, indicated test agents were given I.P. every 3 days for 3 cycles. Animals were sacrificed at day 20, lungs were collected, and weighed.

[2] = Acute myocardial infarct model, 60 min LAD occlusion followed by reperfusion; type: in vivo, Sprague-Dawley rats; conditions: for Infarct (% AAR, mean ± SEM): 24 hr post-treatment
Method: Myocardial infarcts were created in Sprague-Dawley rats (200-300 g body weight) by a 60 min occlusion of the LAD followed by LAD reperfusion. At 90 min post-reperfusion, either vehicle alone or test agents were injected IV. At 24 hr post-treatment, the ischemic zone (area at-risk, AAR) was delineated by re-ligation of the LAD followed by IV injection of alkali blue dye, after which hearts were sectioned along the short axis and stained using triphenyltetrazolium chloride to delineate viable from infarcted myocardium. Photographic images were then analyzed using morphometric software to calculate infarct area as a percent of the at-risk area.
In one group, 3-[2,4-diamino-6-(3-hydroxyphenyl)pteridin-7-yl] phenol dihydrochloride salt was administered at both 60 and 240 min post-occlusion.

[3] = Cerebral stroke model, permanent middle cerebral artery occlusion; type: in vivo, mice; conditions: 1 mg/kg BW IV 60 min after ligation; for Infarct area in mm^3 (mean ± SEM): twenty four hours later; for % Infarct reduction: versus vehicle of the same study
Method: Cerebral strokes were created in mice by permanent ligation of the middle cerebral artery using a cauterizing tool, followed 60 min later by IV injection of either vehicle alone (50% PEG400 in water) or test agents (at 1 mg/kg BW). Twenty four hours later, brains were sectioned and stained using triphenyltetrazolium chloride to delineate viable from infarcted tissue.

[4] = in combination with docetaxel, I.P. every 3 days for 3 cycles, day 20
[5] = stand alone agent, docetaxel co-drug studies (FIGURES 4 and 6), I.P. every 3 days for 3 cycles, day 20
[6] = 0.1 mg/kg BW IV at 90 min post-reperfusion
[7] = 0.1 mg/kg BW, versus vehicle of the same study
[8] = 1.0 mg/kg BW IV at 90 min post-reperfusion
[9] = 1.0 mg/kg BW, versus vehicle of the same study

For Oc1nc(O)c2nc(-c3ccccc3)c(-c3ccc(Oc4ccc(-c5nc6c(O)nc(O)nc6nc5-c5ccccc5)cc4)cc3)nc2n1, the “Score (scale of 0-12)” value (VEGF-induced edema; 1.5 mg/kg IV) was 3.

For Cl.Nc1cncc2nc(-c3ccc(O)c(O)c3)c(-c3ccc(O)c(O)c3)nc12 [2,3-(3,4-Dihydroxyphenyl)-pyrido[3,4-b]pyrazin-8-ylamine], the “Score (scale of 0-12)” value (VEGF-induced edema; 0.01 mg/kg IV) was 6.

With Cl.Cl.Nc1ccc2nc(-c3ccc(O)cc3)c(-c3ccc(O)cc3)nc2n1 [2,3-bis(4-hydroxyphenyl)-pyrido[2,3-b]pyrazin-6-ylamine dihydrochloride salt] the “reduction of tumor burden” value [1, 4] was “greater than 78%” and the “reduction of tumor burden” value [1, 5] was 63%.

For O=C(Cc1ccc(O)c(O)c1)Nc1ccccc1-c1cc2ccccc2[nH]1 [2-(3,4-Dihydroxy-phenyl)-N-[2-(1H-indol-2-yl)-phenyl]-acetamide], the “Score (scale of 0-12)” value (VEGF-induced edema; 0.5 mg/kg IV) was 7.

For O=C(Cc1ccc(O)cc1)Nc1ccccc1-c1cc2ccccc2[nH]1 [2-(4-Hydroxy-phenyl)-N-[2-(1H-indol-2-yl)-phenyl]-acetamide], the “Score (scale of 0-12)” value (VEGF-induced edema; 1.5 mg/kg IV) was 2.

With O=S(=O)(O)c1cc(Nc2ncnc3ncc(-c4ccccc4)nc23)ccc1O [2-Hydroxy-5-(6-phenyl-pteridin-4-ylamino)-benzenesulfonic acid] the “Score (scale of 0-12)” value (VEGF-induced edema; 0.5 mg/kg IV) was 6.

In the case of O=C1c2ccccc2C(=O)N1c1ccccc1-c1cc2ccccc2[nH]1 [2-[2-(1H-indol-2-yl)-phenyl]-isoindole-1,3-dione], the “Score (scale of 0-12)” value (VEGF-induced edema; 1.5 mg/kg IV) is reported as 3.

For O=C(Nc1ccccc1-c1cc2ccccc2[nH]1)c1ccc(O)c(O)c1 [3,4-Dihydroxy-N-[2-(1H-indol-2-yl)-phenyl]-benzamide], the “Score (scale of 0-12)” value (VEGF-induced edema; 0.1 mg/kg IV) was 6.

For O=C(CCc1ccc(O)cc1)Nc1ccccc1-c1cc2ccccc2[nH]1 [3-(4-Hydroxy-phenyl)-N-[2-(1H-indol-2-yl)-phenyl]-propionamide], the “Score (scale of 0-12)” value (VEGF-induced edema; 1.5 mg/kg IV) was 2.

With Br.Br.Nc1nc(N)c2nc(-c3cccc(O)c3)c(-c3cccc(O)c3)nc2n1 [3-[2,4-Diamino-6-(3-hydroxyphenyl)pteridin-7-yl]phenol dibromide salt] the “Infarct (% AAR, mean ± SEM)” value ([2]; 0.5 mg/kg BW IV at 90 min post-reperfusion, Study 5) was 31.6 ± 6.2 % AAR and the “% Infarct reduction” value ([2]; 0.5 mg/kg BW, versus vehicle, Study 5) was 42%.

In the case of Cl.Cl.Nc1nc(N)c2nc(-c3cccc(O)c3)c(-c3cccc(O)c3)nc2n1 [3-[2,4-diamino-6-(3-hydroxyphenyl)pteridin-7-yl] phenol dihydrochloride salt], the “Score (scale of 0-12)” value (VEGF-induced edema; 0.01 mg/kg IV) is reported as 3, the “Score (scale of 0-12)” value (VEGF-induced edema; 0.1 mg/kg IV) is reported as 4 and the “Score (scale of 0-12)” value (VEGF-induced edema; 1 mg/kg IV) is reported as 4. The “Infarct (% AAR, mean ± SEM)” value [2, 6] was 37.7 ± 5.8 % AAR, the “% Infarct reduction” value [2, 7] was 30% and the “Infarct (% AAR, mean ± SEM)” value [2, 8] was 46.4 ± 2.6 % AAR. For the same molecule, the “% Infarct reduction” value [2, 9] was “Not significant”.

For Nc1nc(N)c2nc(-c3ccc(O)cc3)cnc2n1 [4-(2,4-Diamno-pteridin-6-yl)-phenol (sulfate salt)], the “Score (scale of 0-12)” value (VEGF-induced edema; 5 mg/kg IV, lower score = greater anti-edema activity) was 2.

With Cl.Nc1ncnc2nc(-c3ccc(O)c(O)c3)c(-c3ccc(O)c(O)c3)nc12 [4-[4-amino-6-(3,4-dihydroxyphenyl)pteridin-7-yl]benzene-1,2-diol chloride salt] the “Infarct (% AAR, mean ± SEM)” value [2, 6] was 37.1 ± 2.6 % AAR, the “% Infarct reduction” value [2, 7] was 40% and the “Infarct (% AAR, mean ± SEM)” value [2, 8] was 40.1 ± 2.0 % AAR. The “% Infarct reduction” value [2, 9] was 35%.

In the case of Cl.Oc1ccc(Nc2ncnc3ncc(-c4ccccc4)nc23)c2cccnc12 [5-(6-Phenyl-pteridin-4-ylamino)-quinolin-8-ol hydrochloride salt], the “Score (scale of 0-12)” value (VEGF-induced edema; 0.5 mg/kg IV) is reported as 5.

In the case of Cl.Nc1ncnc2nc(-c3cccc(O)c3)c(-c3cccc(O)c3)nc12 [6,7-Bis(3-hydroxyphenyl)-pteridine-4-ylamine hydrochloride salt], the “Infarct (% AAR, mean ± SEM)” value [2, 6] is reported as 39.1 ± 4.2 % AAR, the “% Infarct reduction” value [2, 7] is reported as 37% and the “Infarct (% AAR, mean ± SEM)” value [2, 8] is reported as 39.1 ± 7.5 % AAR. For the same molecule, the “% Infarct reduction” value [2, 9] was 37%.

In the case of Oc1cccc(-c2nc3nc(O)nc(O)c3nc2-c2cccc(O)c2)c1 [6,7-Bis-(3-hydroxy-phenyl)-pteridine-2,4-diol], the “Score (scale of 0-12)” value (VEGF-induced edema; 1.5 mg/kg IV) is reported as 3.

With Nc1ncnc2nc(-c3ccccn3)c(-c3ccccn3)nc12 [6,7-Di-pyridin-2-yl-pteridin-4-ylamine] the “Infarct area in mm^3 (mean ± SEM)” value [3] was 27.2 ± 2.63 mm^3 and the “% Infarct reduction” value [3] was “Not significant”.

For Oc1nc(O)c2nc(-c3ccccc3)c(-c3ccccc3)nc2n1 [6,7-Diphenyl-pteridine-2,4-diol], the “Infarct area in mm^3 (mean ± SEM)” value [3] was 20.2 ± 4.19 mm^3 and the “% Infarct reduction” value [3] was 52%.

With Nc1nc(N)c2nc(-c3ccc(O)c(O)c3)c(-c3ccc(O)c(O)c3)nc2n1 [6,7-bis(3,4-dihydroxyphenyl)-pteridine-2,4,-diamine, hydrochloride salt] the “Infarct (% AAR, mean ± SEM)” value ([2]; 1.5 mg/kg BW IV at 90 min post-reperfusion) was 36.3 ±6.3 % AAR and the “% Infarct reduction” value ([2]; 1.5 mg/kg BW, versus vehicle of the same study) was 33%.

For Nc1nc(N)c2nc(CNCc3ccc4ccccc4c3)cnc2n1 [6-{[(Naphthalen-2-ylmethyl)-amino]-methyl}-pteridine-2,4-diamine], the “Score (scale of 0-12)” value (VEGF-induced edema; 0.1 mg/kg IV) was 4.

For Nc1nc(N)c2nc(CNCc3ccccn3)cnc2n1 [6-{[(Pyridin-2-ylmethyl)-amino]-methyl}-pteridine-2,4-diamine], the “Score (scale of 0-12)” value (VEGF-induced edema; 0.1 mg/kg IV) was 4.

For O=C(Nc1ccccc1C1Cc2ccccc2N1)c1ccccc1O (stereo not shown) [N-[2-(2,3-Dihydro-1H-indol-2-yl)-phenyl]-2-hydroxy-benzamide], the “Score (scale of 0-12)” value (VEGF-induced edema; 0.5 mg/kg IV) was 5.

For Nc1nc(N)c2nc(-c3ccccc3)c(-c3ccccc3)nc2n1 [compound B, 6,7-diphenyl-pteridine-2,4-diamine], the “reduction of tumor burden” value ([1]; in combination with doxorubicin as printed, FIGURE 4 experiment (docetaxel study)) was “greater than 70%”, the “reduction of tumor burden” value ([1]; in combination with doxorubicin, FIGURE 3 experiment, I.P. every 3 days for 3 cycles, day 20) was “greater than 65%” and the “tumor burden in lungs (photo of representative lung samples)” value ([1]; plus doxorubicin, compared with vehicle (control) lungs, FIGURE 5) was “dramatic reduction in tumor burden”. The “reduction of tumor burden” value ([1]; stand alone agent, FIGURE 3 experiment (doxorubicin study), I.P. every 3 days for 3 cycles, day 20) was 35% and the “reduction of tumor burden” value [1, 5] was 20%.

With Cl.Cl.Nc1ccc2nc(-c3ccc(O)c(O)c3)c(-c3ccc(O)c(O)c3)nc2n1 [compound C, 2,3-Bis(3,4-dihydroxyphenyl)-pyrido[2,3-b]pyrazin-6-ylamine dihydrochloride salt] the “reduction of tumor burden” value [1, 4] was “greater than 85%” and the “reduction of tumor burden” value [1, 5] was 65%.

— patent EP2039683B1, “Vasculostatic agents and methods of use thereof” (Targegen, Inc., priority 2002, dated 2004)
